Holding throughout (assay): ≥ marks a high value that may be exact or a test limit, other limits are often not marked, values filed in µg/mL are converted to µM
Assay [1] has as its system Bacillus subtilis IFO 3336.
Assay [2] has as its system Escherichia coli IFO 3301.
Assay [3] concerns Pseudomonas aeruginosa KCTC 1637.
In assay [4] the test system is Pseudomonas aeruginosa CCARM 2109.
Assay [5] deals with Staphylococcus aureus CCARM 3001.
In assay [6] the test system is Candida albicans KCTC 7965.
Assay [7] has as its system Escherichia coli KCTC 1682.
In assay [8] the test system is Staphylococcus aureus KCTC 1621.
Assay [9] relates to Salmonella typhimurium KCTC 1926.
The subject of assay [10] is Bacillus subtilis KCTC 3068.
Assay [11] concerns Staphylococcus aureus CCARM 3543.
In assay [12] the test system is Staphylococcus epidermidis KCTC 1917.
In assay [13] the test system is Pseudomonas aeruginosa CCARM 2095.

Each structure is given as a SMILES string. Values after ≈ are worked out from the molar mass of the structure shown.

The record followed here is DBAASP.

Consider `NC(N)=NCCC[C@H](NC(=O)[C@H](Cc1cnc[nH]1)NC(=O)[C@H](CCCN=C(N)N)NC(=O)[C@H](Cc1cnc[nH]1)NC(=O)[C@@H](N)CCCN=C(N)N)C(=O)N[C@@H](Cc1cnc[nH]1)C(=O)O` [RHRHRH], for which the MIC in assay [1] and in assay [2] was not below 111 µM each time.
In the case of `CC(C)C[C@H](NC(=O)[C@H](Cc1c[nH]c2ccccc12)NC(=O)[C@H](CCCNC(=N)N)NC(=O)[C@H](CCCNC(=N)N)NC(=O)[C@H](Cc1c[nH]c2ccccc12)NC(=O)[C@H](CCCNC(=N)N)NC(=O)[C@H](CCCNC(=N)N)NC(=O)[C@H](Cc1c[nH]c2ccccc12)NC(=O)[C@H](CC(C)C)NC(=O)[C@@H](N)CCCNC(=N)N)C(=O)N[C@@H](CCCNC(=N)N)C(=O)O` [RLWRRWRRWLR], the MIC in assay [3] was 8 µM (≈ 13.9 µg/mL); in assay [4], 16 µM (≈ 27.8 µg/mL); in assay [5], 8 µM (≈ 13.9 µg/mL); in [6], not below 64 µM; in [7], 8 µM (≈ 13.9 µg/mL); in assay [8] it was 4 µM (≈ 6.96 µg/mL). The MIC in assay [9] worked out at 2 µM (≈ 3.48 µg/mL); in assay [10], 4 µM (≈ 6.96 µg/mL); in assay [11], 2 µM (≈ 3.48 µg/mL); in assay [12], 2 µM (≈ 3.48 µg/mL); in [13] it was 16 µM (≈ 27.8 µg/mL).
